Patent US20070191324A1, “Methods for treatment or prophylaxis of aldosterone-mediated pathogenic effects in a subject using an epoxy-steroidal aldosterone antagonist” (priority 1999, published 2007)
Like-named read-outs stand apart in the source and are kept apart here.

What was measured:
[1] = test system: hypertensive patients; assay: Eplerenone vs. amlodipine, ambulatory blood pressure monitoring, 16 weeks (Example D-12); type: in vivo, human
Description: This was a multicenter, randomized, double-blind, active-controlled, placebo run-in, parallel group study. […] If symptomatic hypotension occurred at Week 2 or Weeks 4, 6, 8, or 12 and the patient was on the lowest dose level (Dose Level 1), the patient was to be withdrawn. Study assessments at protocol-specified timepoints included BP, heart rate, ABPM, Holter recording, clinical laboratory analyses including serum potassium levels, concomitant medications. Throughout the study, safety was assessed by routine clinical laboratory analyses, vital signs, physical examinations, 12-lead ECG, and monitoring of adverse events.

[2] = test system: aortas of cholesterol-fed rabbits; assay: Endothelial function in diet induced atherosclerosis, aortic isometric tension and superoxide (Example A-10); type: in vivo, New Zealand white rabbits; details: 50 mg/kg twice daily by gavage, 6 weeks
Experimental: Methods: New Zealand white rabbits were randomized to four treatment groups. 32 Rabbits were placed on normal (NC) or 1% cholesterol chow (HC) for a duration of 8 weeks. […] Rabbits were euthanized at the end of 8 weeks and the aortas extracted for isometric tension studies and estimation of superoxide (O2^−) generation in vessel segments by lucigenin chemiluminescence (250 μM). Vessels were preconstricted with phenylephrine ([…]) to approximately 50% of peak constriction and dose responses to acetylcholine (Ach) and nitroglycerin (NTG) tested.

[3] = Pharmacokinetics in moderate hepatic impairment vs matched normal subjects (Example A-13); details: for AUC / Cmax / AUC(0-inf) / half-life / Tmax: human, plasma, 400 mg; for AUC(0-inf): Single Dose AUC(0-∞), linear kinetics assessment; for half-life: T1/2, Mean;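 for all read-outs here: impaired subjects were Child-Pugh Class B with ascites, compared against healthy volunteers matched for sex, age, weight and smoking, blood sampled before and after dosing on Days 1 and 7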
[4] = test system: patients with mild to moderate hypertension; assay: Eplerenone/HCTZ dose ranging factorial design study (Example D-2); type: in vivo, human
Experimental: Patients were assessed at weeks 0, 2, 4, and 8. Study assessments at protocol-specified timepoints included blood pressure (BP), heart rate, clinical laboratory analyses, vital signs, physical examinations, 12-lead ECG, and monitoring of adverse events. A total of 614 patients were randomized.

[5] = test system: diabetic type 2 patients with hypertension and microalbuminuria; assay: Eplerenone, enalapril and combination in diabetic hypertensives with microalbuminuria, 24 weeks (Examples A-18, D-7); type: in vivo, human
[6] = test system: black and white patients with mild-to-moderate hypertension; details: for Active Renin (% change) / ΔDBP / ΔSBP: baseline to Week 16
[7] = test system: patients with mild-to-moderate hypertension; assay: Long-term open-label safety and efficacy study of eplerenone (Example D-11); type: in vivo, human; design: mean change from baseline SBP: unit not given beside the values; details: for Change Mean seated DBP, Baseline to End of Treatment / Change Mean seated SBP, Baseline to End of Treatment: Responders, ITT
Experimental: This 6- to 16-month, open-label, single-group, titration-to-effect study assessed the safety, tolerability, and efficacy of EPL in patients with mild-to-moderate hypertension.
Patients (n=586) with DBP ≧90 mmHg and <110 mmHg, or SBP ≧140 mmHg and <180 mmHg, received EPL 50 mg QD. If BP was uncontrolled at Weeks 2 or 4 (DBP ≧90 mmHg or SBP ≧140 mmHg), EPL was up-titrated to 100 mg QD and, if necessary, 200 mg QD. If BP remained uncontrolled at any time from Week 6 to the end of Month 3, a second antihypertensive medication of the investigator's choice was added. Safety, tolerability, and BP were assessed at protocol-specified times.

[8] = Food effect pharmacokinetic studies, Japan and Ex-Japan (Example A-11); type: in vivo, human; details: single 100 mg; for AUC(0-inf) / Cmax / AUC: male, human, in vivo, oral, 100 mg; for AUC: read-out: AUC (0-lqc)
Experimental: The […] trials included (i) a single dose tolerability trial, and (ii) a multiple dose tolerability trial, and (iii) a food effect study.
Both single dose and multiple dose tolerability trials were conducted in Japan utilizing healthy male Japanese subjects. […] Six subjects who received the 100 mg dose also participated in the food effect treatment arm of the single dose tolerability trial.
Table A-11C contains the geometric least squares means for the fed and fasting regimens, the ratios of means and the corresponding 95% confidence intervals (CI) for the ratios of the means for the Japan and Ex-Japan food effect trials.
Each panel consisted of six subjects who were given eplerenone and two subjects who were given placebo.

[9] = Mean, Multiple Dose 400 mg QD, Normal
[10] = Mean, Single Dose 400 mg, Normal
[11] = Mean, Multiple Dose 400 mg QD, Moderate
[12] = Mean, Single Dose 400 mg, Moderate
[13] = least squares mean, Multiple Dose 400 mg QD, Moderate Impairment
[14] = least squares mean, Single Dose 400 mg, Moderate Impairment
[15] = eplerenone 25, 50 or 200 mg daily, HCTZ 12.5 or 25 mg daily, 8 weeks
[16] = EPL 200 mg plus add-on therapy (N=172)
[17] = subgroup 50, 100, 200 mg QD + Ahyp (add-on therapy)
[18] = final dose level EPL 50 mg (N=68)
[19] = final dose level EPL 100 mg (N=89)
[20] = final dose level EPL 200 mg (N=104)

COC(=O)[C@@H]1CC2=CC(=O)CC[C@]2(C)[C@@]23O[C@@H]2C[C@@]2(C)[C@@H](CC[C@@]24CCC(=O)O4)[C@H]13 [Eplerenone, Pregn-4-ene-7,21-dicarboxylic acid, 9,11-epoxy-17-hydroxy-3-oxo-, γ-lactone, methyl ester, (7α, 11α, 17β)-]
anti-hypertensive effect, mean 24 hour systolic ABPM ([1]; eplerenone 50-200 mg, amlodipine 2.5-10 mg, 16 weeks): comparable | safety and tolerability ([1]; in vivo): safe and well tolerated | ED50 Ach ([2]; 1% cholesterol chow): 68 nM | ED50 NTG ([2]; 1% cholesterol chow): 10 nM | ED50 Ach ([2]; normal chow): 32 nM | ED50 NTG ([2]; normal chow): 5.7 nM | time to steady-state concentrations ([3]; 400 mg QD dosing, both subject groups): by the fourth day | mean AUC higher in moderate impairment than matched normal subjects ([3]; following single dosing): 41-50% | AUC ([3]; Mean, Multiple Dose 400 mg QD, Moderate hepatic impairment): 48800 ng·h/mL | AUC [3, 9]: 33800 ng·h/mL | AUC ([3]; Mean, Single Dose 400 mg, Moderate hepatic impairment): 51400 ng·h/mL | AUC [3, 10]: 31000 ng·h/mL | Cmax [3, 11]: 4170 ng/mL | Cmax [3, 9]: 3880 ng/mL | Cmax [3, 12]: 3790 ng/mL | Cmax [3, 10]: 3840 ng/mL | Cmax [3, 13]: 3810 ng/mL | Cmax ([3]; least squares mean, Multiple Dose 400 mg QD, Normal): 3670 ng/mL | Cmax [3, 14]: 3410 ng/mL | Cmax ([3]; least squares mean, Single Dose 400 mg, Normal): 3810 ng/mL | AUC(0-inf) ([3]; Moderate Hepatic Impairment): 49800 ng·h/mL | AUC(0-inf) ([3]; Normal): 28700 ng·h/mL | half-life ([3]; Multiple Dose 400 mg QD, Moderate): 8.07 h | half-life ([3]; Multiple Dose 400 mg QD, Normal): 7.61 h | half-life ([3]; Single Dose 400 mg, Moderate): 6.78 h | half-life ([3]; Single Dose 400 mg, Normal): 6.31 h | Tmax [3, 11]: 2.81 h | Tmax [3, 12]: 2.56 h | Tmax [3, 10]: 2.03 h | Tmax [3, 13]: 2.9 h | Tmax [3, 14]: 2.7 h | gynecomastia ([4]; eight weeks): Gynecomastia was not observed | safety and tolerability ([4]; eight weeks, monotherapy or in combination with HCTZ): safe and well tolerated | DBP, change from Baseline to the Final Visit [4, 15]: dose-dependent decreases in DBP | SBP, change from Baseline to the Final Visit [4, 15]: dose-dependent decreases in SBP | patients withdrawn for hyperkalemia ([5]; 24 weeks): 6 patients | reduction in microalbuminuria (UACR) ([5]; 24 weeks): greater reduction in microalbuminuria than enalapril | subjects with elevated K+ (≧6.0 mEq/L) ([5]; 24 weeks): 8 subjects | patients requiring addition of hydrochlorothiazide (HCTZ) ([5]; EPL 200 mg QD, ENAL 40 mg QD, EPL 200 mg/ENAL 10 mg, 24 weeks): 36/84 | Adjusted mean change ΔDBP (Week 8-baseline) ([5]; Week 8): −10.2 | Adjusted mean change ΔSBP (Week 8-baseline) ([5]; Week 8): −13.5 | Adjusted mean change ΔDBP (Week 24-baseline) ([5]; Week 24): −13.2 | Adjusted mean change ΔSBP (Week 24-baseline) ([5]; Week 24): −19.5 | tolerability ([5]; in vivo): well tolerated | treatment of mild-to-moderate hypertension in black hypertensive patients ([6]; 16 weeks): superior to losartan | Active Renin (% change) ([6]; All Patients): +45.6% | ΔDBP ([6]; All Patients): −10.3 mmHg | ΔSBP ([6]; All Patients): −12.8 mmHg | Active Renin (% change) ([6]; Black Patients): +39.3% | ΔDBP ([6]; Black Patients): −10.2 mmHg | ΔSBP ([6]; Black Patients): −13.5 mmHg | adjusted mean percent change from baseline in UACR ([6]; Week 16, EPL 50-200 mg QD, LOS 50-100 mg QD): −21.6% | Active Renin (% change) ([6]; White Patients): +57.1% | ΔDBP ([6]; White Patients): −11.1 mmHg | ΔSBP ([6]; White Patients): −12.3 mmHg | safety and tolerability ([6]; human, in vivo): safe and well-tolerated | patients responding to eplerenone monotherapy ([7]; 261/582): 44.8% | mean change from baseline DBP [7, 16]: −14.6 | mean change from baseline SBP [7, 16]: −24.9 | Change Mean seated DBP, Baseline to End of Treatment ([7]; subgroup 50 mg QD): −10.6 mmHg | Change Mean seated SBP, Baseline to End of Treatment ([7]; subgroup 50 mg QD): −15.9 mmHg | Change Mean seated DBP, Baseline to End of Treatment ([7]; subgroup 50, 100 mg QD): −12.2 mmHg | Change Mean seated SBP, Baseline to End of Treatment ([7]; subgroup 50, 100 mg QD): −18.1 mmHg | Change Mean seated DBP, Baseline to End of Treatment ([7]; subgroup 50, 100, 200 mg QD): −12.5 mmHg | Change Mean seated SBP, Baseline to End of Treatment ([7]; subgroup 50, 100, 200 mg QD): −19.1 mmHg | Change Mean seated DBP, Baseline to End of Treatment [7, 17]: −14.6 mmHg | Change Mean seated SBP, Baseline to End of Treatment [7, 17]: −24.9 mmHg | gynecomastia ([7]; doses of 50, 100, and 200 mg): 0.7% | mean change from baseline DBP [7, 18]: −10.6 | mean change from baseline SBP [7, 18]: −15.9 | mean change from baseline DBP [7, 19]: −12.2 | mean change from baseline SBP [7, 19]: −18.1 | mean change from baseline DBP [7, 20]: −12.5 | mean change from baseline SBP [7, 20]: −19.1 | patients with treatment-emergent AEs of probable relationship to study medication ([7]; in vivo): 8.4% | patients with treatment-emergent AEs of uncertain relationship to study medication ([7]; in vivo): 21.5% | responders at the end of treatment, number ([7]; of 582 patients): 433 patients | responders (seDBP<90 mmHg or ≧10 mmHg decrease from Baseline) at the end of treatment ([7]; of 582 patients, EPL 50-200 mg QD with or without add-on): 74.3% | patients with elevated K+ levels ([7]; primarily those receiving EPL 200 mg): 2.4% | safety and tolerability ([7]; up to 14 months, 50-200 mg daily alone or 200 mg/day with another antihypertensive agent): safe and well tolerated | AUC (0-inf) Mean Ratio fed/fasted ([8]; Ex-Japan): 1.079 | AUC (0-inf) Mean Ratio fed/fasted ([8]; Japan): 1.218 | AUC(0-inf) ([8]; Ex-Japan, Fasted): 9060 ng·h/mL | Cmax ([8]; Ex-Japan, Fasted): 1620 ng/mL | AUC ([8]; Ex-Japan, Fasted): 8940 ng·h/mL | AUC(0-inf) ([8]; Ex-Japan, Fed): 9780 ng·h/mL | Cmax ([8]; Ex-Japan, Fed (high fat meal)): 1320 ng/mL | AUC ([8]; Ex-Japan, Fed): 9650 ng·h/mL | AUC(0-inf) ([8]; Japan, Fasted): 8970 ng·h/mL | Cmax ([8]; Japan, Fasted): 1310 ng/mL | AUC(0-inf) ([8]; Japan, Fed): 10900 ng·h/mL | Cmax ([8]; Japan, Fed): 1520 ng/mL
